Laboratory results: patent US12064480B2, “Immunigenic alpha-branched trehalose-diesters” (GLAXOSMITHKLINE BIOLOGICALS SA, priority 2018, dated 2024)

Legend:
human PBMCs = assay: Cytokine production from human PBMCs (Luminex multiplex panel); assay type: cell-based; conditions: human cells
Experimental: TDM (trehalose-6,6′-dimycolate) was obtained from Sigma. TDB (6,6′-dibehenoyl-α,α′-trehalose) was obtained from Avanti Polar Lipids. MMG (glycerol monomycolate) was prepared according to the procedure of Andersen et. al. sTDCM (synthetic trehalose dicorynomycolate) was obtained from Sigma-Aldrich (Catalog Number S3452).
PBMCs were obtained via leukapheresis from normal donors (AllCells, Berkeley, CA). Upon receipt PBMCs were repeatedly washed in 1×PBS and cryopreserved in freezing media (50% RPMI, 40% FCS, 10% DMSO) for future use. For assay, cells were immediately thawed into RPMI media, 10% heat inactivated FBS, 1× penicillin/streptomycin/glutamine (complete media), washed once and resuspended to the desired cell concentration in complete media. Cells were treated with the indicated compound concentrations by addition to plates containing serial dilution of the stock compound in diluent (50% isopropanol/50% isooctane). Compounds were applied, 20 ul final volume, to the bottom of a tissue culture plate and solvent was allowed to fully evaporate (i.e. plate coating) before cell addition.
Supernatants were harvested from treated cells 18-24 h post cell application. Supernatants were analyzed using a Luminex multiplex panel for analytes TNFα, IL-1β, IL-6, IFNγ, IL-12p70 and IL-23 per the manufacturer's instructions.

mouse Raw cell line = assay: Cytokine production (TNFα) from mouse Raw cells; assay type: cell-based; conditions: for TNFα efficacy/peak levels relative to the other reference compounds / TNFα potency in mouse cell line compared to human cells / TNFα potency relative to sTDCM: FIG. 4A; for TNFα potency in mouse cell line compared to human cells: mouse Raw cells vs human cells
Text: The compounds were screened for their ability to induce TNFα from the mouse Raw cell line. An aim of this study was to determine if species specific differences in responses to compounds may be observed.

Compound	MMG/sTDCM potency difference (human PBMCs) [fold]	fold less potent than sTDCM (mouse Raw cell line; mouse Raw cells, TNFα)	TNFα induction (activity) (mouse Raw cell line; mouse Raw cells, FIG. 4)	TNFα efficacy/peak levels relative to the other reference compounds (mouse Raw cell line; mouse Raw cells)	TNFα potency in mouse cell line compared to human cells (mouse Raw cell line)	TNFα potency relative to sTDCM (mouse Raw cell line; mouse Raw cells)
glycerol monomycolate [MMG]	~10	over 100 fold	some activity	equivalent levels	–	–
CCCCCCCCCCCCCCCCCCCCCC(=O)OC[C@H]1O[C@H](O[C@H]2O[C@H](COC(=O)CCCCCCCCCCCCCCCCCCCCC)[C@@H](O)[C@H](O)[C@H]2O)[C@H](O)[C@@H](O)[C@@H]1O [TDB, 6,6′-dibehenoyl-α,α′-trehalose]	–	–	–	higher efficacy/peak levels	more potent in the mouse cell line as compared to human cells	equivalent potency
trehalose-6,6′-dimycolate [TDM]	–	–	–	higher efficacy/peak levels	more potent in the mouse cell line as compared to human cells	equivalent potency
